Bounds are passed on as bounds.

Series [1] is filed under the species Homo sapiens.
For series [2], the system named is Human alphaherpesvirus 1. In words: microbe, parasite or virus in culture. The conditions noted are these: Human alphaherpesvirus 1, E377, HFF, 72 h. It is filed as functional, organism-based.
Series [3] concerns Human alphaherpesvirus 2. Put plainly: microbe, parasite or virus in culture. It is filed as functional, organism-based. The conditions noted are these: Human alphaherpesvirus 2, MS, HFF, 72 h.
Series [4] has as its system Human alphaherpesvirus 3. In words: microbe, parasite or virus in culture. In kind it is functional, organism-based. As to conditions: Human alphaherpesvirus 3, Ellen, HFF, 240 h.
The test system of series [5] is Human alphaherpesvirus 2. Put plainly: microbe, parasite or virus in culture. It is filed as functional, organism-based. As to conditions: Human alphaherpesvirus 2, AG3, HFF, 72 h.
Series [6] deals with Human alphaherpesvirus 1. In words: microbe, parasite or virus in culture. In kind it is functional, organism-based. The conditions noted are these: Human alphaherpesvirus 1, DM2.1, HFF, 72 h.
Series [7] concerns Vaccinia virus. Put plainly: microbe, parasite or virus in culture. As to conditions: Orthopoxvirus vaccinia, HFF, 1 h. It is filed as functional, organism-based.
In series [8] the test system is Cowpox virus. In words: microbe, parasite or virus in culture. The conditions noted are these: Brighton, HFF, 1 h. It is filed as functional, organism-based.
For series [9], the system named is Cowpox virus. Put plainly: microbe, parasite or virus in culture. It is filed as functional, organism-based. The conditions noted are these: HFF, 48 h.
In series [10] the test system is Cowpox virus. In words: microbe, parasite or virus in culture. In kind it is functional, organism-based. As to conditions: HFF, 48 h. The source holds these as a separate data set.
Substrate in series [11]: O=c1[nH]c(=O)n([C@H]2C[C@H](O)[C@@H](CO)O2)cc1Br
The conditions noted are these: Orthopoxvirus vaccinia; WR.

Substrate in series [12]: CCOC(=O)/C(C#N)=C/c1cn([C@H]2C[C@H](O)[C@@H](CO)O2)c(=O)[nH]c1=O
As to conditions: Orthopoxvirus vaccinia; WR.

Substrate in series [13]: O=c1[nH]c(=O)n([C@H]2C[C@H](O)[C@@H](CO)O2)cc1F
As to conditions: Orthopoxvirus vaccinia; WR.

Substrate in series [14]: CC1(C)CC(=O)C2=C(C1)OC(N)=C(C#N)C2c1cn([C@H]2C[C@H](O)[C@@H](CO)O2)c(=O)[nH]c1=O
The conditions noted are these: Orthopoxvirus vaccinia; WR.

Substrate in series [15]: Nc1nc(=O)n([C@@H]2O[C@H](CO)[C@@H](O)[C@@H]2F)cc1I
The conditions noted are these: Orthopoxvirus vaccinia; WR.

Substrate in series [16]: N#CC(C#N)=Cc1cn([C@H]2C[C@H](O)[C@@H](CO)O2)c(=O)[nH]c1=O
As to conditions: Orthopoxvirus vaccinia; WR.

Substrate in series [17]: O=c1[nH]cc(C(F)(F)F)c(=O)[nH]1
The conditions noted are these: Orthopoxvirus vaccinia; WR.

As usually defined, the Km is the concentration of substrate that gives half-maximal velocity. As usually defined, the EC50 is the concentration that produces a half-maximal response. Low readings indicate greater potency, high ones weaker potency. As for `N#CC(C#N)=Cc1cn([C@H]2C[C@H](O)[C@@H](CO)O2)c(=O)[nH]c1=O`, the Km in series [1] came to 113 µM. Further, the EC50 came out at 11 µM in series [2]; 11 µM in series [3]; 15 µM in [4]; 12 µM in [5]; 14 µM in [6]; 17 µM in series [7]. In addition, the results for the EC50 in series [8], in series [9] and in series [10] were 21 µM, 46 µM and 1.9 µM, respectively.

For `O=c1[nH]c(=O)n([C@@H]2O[C@H](CO)[C@@H](O)[C@@H]2F)cc1I`, the Km in [1] turned out to be 66 µM.

As for `CC1(C)CC(=O)C2=C(C1)OC(N)=C(C#N)C2c1cn([C@H]2C[C@H](O)[C@@H](CO)O2)c(=O)[nH]c1=O` (stereo partly specified), in [1], the Km was over 200 µM. For the same molecule, the EC50 came out at 7.3 µM in series [2]; 13 µM in series [3]; 9.2 µM in series [4]; 14 µM in [5]; 17 µM in series [6]; 7.9 µM in series [7]. The EC50 is 8.4 µM in [8], 67 µM in [9] and 3.1 µM in [10].

With `O=c1[nH]c(=O)n([C@H]2C[C@H](O)[C@@H](CO)O2)cc1F`, the Km in series [1] worked out at 96 µM.

For `CCOC(=O)/C(C#N)=C/c1cn([C@H]2C[C@H](O)[C@@H](CO)O2)c(=O)[nH]c1=O`, in [1], the Km was found to be 118 µM. Further, the EC50 in series [2] is 7.6 µM; in series [3] it was 8.3 µM; in series [4], 48 µM; in series [5] it was 11 µM; in series [6] it was 16 µM; in series [7], 18 µM. Further, the figures for the EC50 in series [8], in series [9] and in series [10] were 11 µM, 71 µM and 1.9 µM, respectively.

Take `N#CC1=C(N)OC2=C(C(=O)CCC2)C1c1cn([C@H]2C[C@H](O)[C@@H](CO)O2)c(=O)[nH]c1=O` (stereo partly specified): the EC50 in series [2] is 8.6 µM; in series [3] it was 12 µM; in series [4] it was 16 µM; in series [5], 12 µM; in [6], 13 µM; in series [7] it was 4.6 µM. Also, the EC50 turned out to be 2 µM in [8], 67 µM in [9] and 1.9 µM in series [10].

`Nc1nc2c(ncn2COCCO)c(=O)[nH]1` [ACYCLOVIR]: the concentration giving a half-maximal response (EC50) in series [2] is 1.3 µM; in series [3] it was 3.1 µM; in series [4], 8.5 µM; in [5], over 444 µM; in series [6], over 444 µM.

As for `O=c1[nH]cc(C(F)(F)F)c(=O)[nH]1`, the Km in series [1] was 47 µM.

Regarding `O=c1[nH]c(=O)n([C@H]2C[C@H](O)[C@@H](CO)O2)cc1I` [IDOXURIDINE], the Km in series [1] worked out at 38 µM. In addition, the EC50 in series [7] was 5.6 µM; in series [8] it was 1.8 µM; in [9], 76 µM; in [10], 1.1 µM.

Consider `Nc1nc(=O)n([C@@H]2O[C@H](CO)[C@@H](O)[C@@H]2F)cc1I`, for which the Km in series [1] is over 135 µM.

Turning to `O=c1[nH]c(=O)n([C@H]2C[C@H](O)[C@@H](CO)O2)cc1Br`, the Km in series [1] was found to be 46 µM.

For the molecule `Nc1ccn(C[C@@H](CO)OCP(=O)(O)O)c(=O)n1` [CIDOFOVIR], the EC50 in [7] stood at 11 µM; in [8], 32 µM; in series [9] it was 16 µM; in series [10] it was 10 µM.

Regarding `Cc1cn([C@H]2C[C@H](O)[C@@H](CO)O2)c(=O)[nH]c1=O`, the Km in [1] stood at 23 µM.

B1: Thymidine kinase (Vaccinia virus (strain Western Reserve) (VACV) (Vaccinia virus (strainWR))), P68563 (protein)
chain: MNGGHIQLIIGPMFSGKSTELIRRVRRYQIAQYKCVTIKYSNDNRYGTGLWTHDKNNFEALEATKLCDVLESITDFSVIGIDEGQFFPDIVEFCERMANEGKIVIVAALDGTFQRKPFNNILNLIPLSEMVVKLTAVCMKCFKEASFSKRLGEETEIEIIGGNDMYQSVCRKCYIDS
Consider B1, for which the Michaelis constant (Km) in series [11] was 30 µM; in series [12], 13 µM; in [13], 113 µM; in series [14], 97 µM; in [15], over 135 µM; in [16], 9.6 µM. In series [17], the Km came out at 14 µM.

The values are drawn from ChEMBL document CHEMBL1145474, “Selective phosphorylation of antiviral drugs by vaccinia virus thymidine kinase” (Antimicrob Agents Chemother, 2007).
